Where two headings read alike, the source gives them in different places.
Tests used:
GST-MCL-1 = GST-MCL-1 (Homo sapiens, UniProt Q07820); assay: TR-FRET MCL-1 binding assay (competition with probe F-Bak)
How it was run: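 Test compounds, 11 three-fold dilutions from 25 μM final, incubated 2 hours at room temperature with GST-MCL-1, F-Bak probe and Tb-anti-GST antibody. TR-FRET read at 340/35 nm excitation with 520/525 and 495/510 nm emission. Run without human serum and with 10% HS.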

[1] = test system: NCI-H929 human multiple myeloma tumor cell line; assay: NCI-H929 cell viability assay (CellTiter-Glo, 24 hours); type: cell-based; conditions: Homo sapiens, NCI-H929, 24 h, read-out: H929 Viability IC50 (μM, 10% FBS), 10% FBS, 24 hours of compound treatment
[2] = test system: AMO-1 human multiple myeloma tumor cell line; assay: AMO-1 cell viability assay (CellTiter-Glo, 24 hours); type: cell-based; conditions: Homo sapiens, AMO1, 24 h, read-out: AMO-1 Viability IC50 (μM, 10% FBS), 10% FBS, 24 hours of compound treatment
[3] = MCL-1 Binding Ki (nM, 10% HS), in the presence of 10% HS (human serum)
[4] = without HS, read-out: MCL-1 Binding Ki

Sequence of GST-MCL-1 (Q07820 whole entry): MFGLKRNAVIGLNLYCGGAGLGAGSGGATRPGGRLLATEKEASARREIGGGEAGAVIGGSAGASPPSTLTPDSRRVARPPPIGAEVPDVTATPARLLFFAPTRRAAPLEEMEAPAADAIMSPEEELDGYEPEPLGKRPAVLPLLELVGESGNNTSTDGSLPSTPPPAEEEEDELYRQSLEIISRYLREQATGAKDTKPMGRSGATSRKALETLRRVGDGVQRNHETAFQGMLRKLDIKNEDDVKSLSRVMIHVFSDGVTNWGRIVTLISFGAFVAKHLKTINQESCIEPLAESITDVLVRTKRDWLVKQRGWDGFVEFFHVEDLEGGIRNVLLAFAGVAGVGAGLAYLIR

Compound: Cc1c(Cl)c2c(Cl)c(C)c1-c1c(-c3ccc(F)cc3)sc3ncnc(c13)O[C@@H](C(=O)O)Cc1cc(ccc1OCc1ccnc(-c3ccc(OC[C@H]4CN(C)CCO4)cc3)n1)OC[C@@H](CN1CCN(C)CC1)O2 [Example 158, (7R,16R)-19,23-dichloro-1-(4-fluorophenyl)-20,22-dimethyl-10-{[2-(4-{[(2R)-4-methylmorpholin-2-yl]methoxy}phenyl)pyrimidin-4-yl]methoxy}-16-[(4-methylpiperazin-1-yl)methyl]-7,8,15,16-tetrahydro-18,21-etheno-9,13-(metheno)-6,14,17-trioxa-2-thia-3,5-diazacyclononadeca[1,2,3-cd]indene-7-carboxylic Acid]
- Ki (GST-MCL-1; [3]): 0.41 nM
- Ki (GST-MCL-1; [4]): 0.003 nM
- IC50 [1]: 0.00131 µM
- IC50 [2]: 0.000258 µM

Compound: Cc1c(Cl)c2c(Cl)c(C)c1-c1c(-c3ccc(F)cc3)sc3ncnc(c13)O[C@@H](C(=O)O)Cc1cc(ccc1OCc1ccnc(C(CO)CO)n1)OC[C@@H](CN1CCN(C)CC1)O2 [Example 62, (7R,16R)-19,23-dichloro-10-{[2-(1,3-dihydroxypropan-2-yl)pyrimidin-4-yl]methoxy}-1-(4-fluorophenyl)-20,22-dimethyl-16-[(4-methylpiperazin-1-yl)methyl]-7,8,15,16-tetrahydro-18,21-etheno-9,13-(metheno)-6,14,17-trioxa-2-thia-3,5-diazacyclononadeca[1,2,3-cd]indene-7-carboxylic Acid]
- Ki (GST-MCL-1; [3]): 2.26 nM
- Ki (GST-MCL-1; [4]): 0.324 nM
- IC50 [1]: 0.095 µM
- IC50 [2]: 0.0251 µM

Compound: COCCOCCOCCOCCN(CCOCCOCCOCCOC)c1nccc(COc2ccc3cc2C[C@H](C(=O)O)Oc2ncnc4sc(-c5ccc(F)cc5)c(c24)-c2c(C)c(Cl)c(c(Cl)c2C)O[C@H](CN2CCN(C)CC2)CO3)n1 [Example 109, (7R,16R)-10-({2-[bis(2,5,8,11-tetraoxatridecan-13-yl)amino]pyrimidin-4-yl}methoxy)-19,23-dichloro-1-(4-fluorophenyl)-20,22-dimethyl-16-[(4-methylpiperazin-1-yl)methyl]-7,8,15,16-tetrahydro-18,21-etheno-13,9-(metheno)-6,14,17-trioxa-2-thia-3,5-diazacyclononadeca[1,2,3-cd]indene-7-carboxylic Acid]
- Ki (GST-MCL-1; [3]): 2.43 nM
- Ki (GST-MCL-1; [4]): 0.104 nM
- IC50 [1]: 0.0128 µM
- IC50 [2]: 0.0166 µM

Compound: CO[C@H]1O[C@H](COc2ccc(-c3nccc(COc4ccc5cc4C[C@H](C(=O)O)Oc4ncnc6sc(-c7ccc(F)cc7)c(c46)-c4ccc(c(Cl)c4C)CN(CCN4CCN(C)CC4)C5)n3)cc2)[C@@H](O)[C@H](O)[C@@H]1O [Example 10, methyl 6-O-{4-[4-({[(7R,20S)-7-carboxy-18-chloro-1-(4-fluorophenyl)-19-methyl-15-[2-(4-methylpiperazin-1-yl)ethyl]-7,8,15,16-tetrahydro-14H-17,20-etheno-13,9-(metheno)-6-oxa-2-thia-3,5,15-triazacyclooctadeca[1,2,3-cd]inden-10-yl]oxy}methyl)pyrimidin-2-yl]phenyl}-a-D-mannopyranoside]
- Ki (GST-MCL-1; [3]): 0.494 nM
- Ki (GST-MCL-1; [4]): 0.06 nM
- IC50 [1]: > 1 µM
- IC50 [2]: > 1 µM

Compound: Cc1c(Cl)c2c(Cl)c(C)c1-c1c(-c3ccc(F)cc3)sc3ncnc(c13)O[C@@H](C(=O)O)Cc1cc(ccc1OCc1ccnc(-c3ccc(OCCN4CC5(COC5)C4)cc3)n1)OC[C@@H](CN1CCN(C)CC1)O2 [Example 165, (7R,16R)-19,23-dichloro-1-(4-fluorophenyl)-20,22-dimethyl-16-[(4-methylpiperazin-1-yl)methyl]-10-[(2-{4-[2-(2-oxa-6-azaspiro[3.3]heptan-6-yl)ethoxy]phenyl}pyrimidin-4-yl)methoxy]-7,8,15,16-tetrahydro-18,21-etheno-13,9-(metheno)-6,14,17-trioxa-2-thia-3,5-diazacyclononadeca[1,2,3-cd]indene-7-carboxylic Acid]
- Ki (GST-MCL-1; [3]): 0.267 nM
- Ki (GST-MCL-1; [4]): 0.031 nM
- IC50 [1]: 0.00856 µM
- IC50 [2]: 0.00353 µM

Compound: Cc1c(Cl)c2c(Cl)c(C)c1-c1c(-c3ccc(F)cc3)sc3ncnc(c13)O[C@@H](C(=O)O)Cc1cc(ccc1OCc1ccnc(-c3ccc(CN4CCOCC4)cc3)n1)OC[C@@H](CN1CCN(C)CC1)O2 [Example 148, (7R,16R)-19,23-dichloro-1-(4-fluorophenyl)-20,22-dimethyl-16-[(4-methylpiperazin-1-yl)methyl]-10-[(2-{4-[(morpholin-4-yl)methyl]phenyl}pyrimidin-4-yl)methoxy]-7,8,15,16-tetrahydro-18,21-etheno-13,9-(metheno)-6,14,17-trioxa-2-thia-3,5-diazacyclononadeca[1,2,3-cd]indene-7-carboxylic Acid]
- Ki (GST-MCL-1; [3]): 0.346 nM
- Ki (GST-MCL-1; [4]): 0.034 nM
- IC50 [1]: 0.000736 µM
- IC50 [2]: 0.00018 µM

Compound: Cc1c(Cl)c2c(Cl)c(C)c1-c1c(-c3ccc(F)cc3)sc3ncnc(c13)O[C@@H](C(=O)O)Cc1cc(ccc1OCc1ccnc(-c3cccc(CN4CCOCC4)c3)n1)OC[C@@H](CN1CCN(C)CC1)O2 [Example 147, (7R,16R)-19,23-dichloro-1-(4-fluorophenyl)-20,22-dimethyl-16-[(4-methylpiperazin-1-yl)methyl]-10-[(2-{3-[(morpholin-4-yl)methyl]phenyl}pyrimidin-4-yl)methoxy]-7,8,15,16-tetrahydro-18,21-etheno-13,9-(metheno)-6,14,17-trioxa-2-thia-3,5-diazacyclononadeca[1,2,3-cd]indene-7-carboxylic Acid]
- Ki (GST-MCL-1; [3]): 0.098 nM
- Ki (GST-MCL-1; [4]): 0.002 nM
- IC50 [1]: 0.000162 µM
- IC50 [2]: 0.000204 µM

Compound: Cc1c(Cl)c2c(Cl)c(C)c1-c1c(-c3ccc(F)cc3)sc3ncnc(c13)O[C@@H](C(=O)O)Cc1cc(ccc1OCc1ccnc(N3C[C@@H]4[C@H](C3)[C@H]4C(=O)O)n1)OC[C@@H](CN1CCN(C)CC1)O2 [Example 36, (7R,16R)-10-({2-[(1R,5S,6r)-6-carboxy-3-azabicyclo[3,1,0]hexan-3-yl]pyrimidin-4-yl}methoxy)-19,23-dichloro-1-(4-fluorophenyl)-20,22-dimethyl-16-[(4-methylpiperazin-1-yl)methyl]-7,8,15,16-tetrahydro-18,21-etheno-13,9-(metheno)-6,14,17-trioxa-2-thia-3,5-diazacyclononadeca[1,2,3-cd]indene-7-carboxylic Acid]
- Ki (GST-MCL-1; [3]): 1.16 nM
- Ki (GST-MCL-1; [4]): 0.144 nM
- IC50 [1]: 0.653 µM
- IC50 [2]: 0.32 µM

Compound: Cc1c(Cl)c2c(Cl)c(C)c1-c1c(-c3ccc(F)cc3)sc3ncnc(c13)O[C@@H](C(=O)O)Cc1cc(ccc1OCc1ccnc(-c3ccccc3S(C)(=N)=O)n1)OCC(CN1CCN(C)CC1)O2 (stereo partly drawn) [Example 26, (7R,16R)-19,23-dichloro-1-(4-fluorophenyl)-10-({2-[2-(S-methanesulfonimidoyl)phenyl]pyrimidin-4-yl}methoxy)-20,22-dimethyl-16-[(4-methylpiperazin-1-yl)methyl]-7,8,15,16-tetrahydro-18,21-etheno-13,9-(metheno)-6,14,17-trioxa-2-thia-3,5-diazacyclononadeca[1,2,3-cd]indene-7-carboxylic Acid]
- Ki (GST-MCL-1; [3]): 0.11 nM
- Ki (GST-MCL-1; [4]): 0.021 nM
- IC50 [1]: 0.00289 µM
- IC50 [2]: 0.00112 µM

Compound: Cc1c(Cl)c2c(Cl)c(C)c1-c1c(-c3ccc(F)cc3)sc3ncnc(c13)O[C@@H](C(=O)O)Cc1cc(ccc1OCc1ccnc(-c3ccc(CN4CCOCCOCCOCCOCC4)cc3)n1)OC[C@@H](CN1CCN(C)CC1)O2 [Example 129, (7R,16R)-19,23-dichloro-1-(4-fluorophenyl)-20,22-dimethyl-16-[(4-methylpiperazin-1-yl)methyl]-10-[(2-{4-[(1,4,7,10-tetraoxa-13-azacyclopentadecan-13-yl)methyl]phenyl}pyrimidin-4-yl)methoxy]-7,8,15,16-tetrahydro-18,21-etheno-13,9-(metheno)-6,14,17-trioxa-2-thia-3,5-diazacyclononadeca[1,2,3-cd]indene-7-carboxylic Acid]
- Ki (GST-MCL-1; [3]): 0.064 nM
- Ki (GST-MCL-1; [4]): 0.002 nM
- IC50 [1]: 0.000562 µM
- IC50 [2]: 0.000144 µM

Compound: COCCOCCOCCOc1ccccc1-c1nccc(COc2ccc3cc2C[C@@H](C(=O)O)Oc2ncnc4sc(-c5ccc(F)cc5)c(c24)-c2ccc(c(Cl)c2C)O[C@H](CN2CCN(C)CC2)CO3)n1 (atropisomer, axis not shown) [Example 2, (7S,16R,21S)-19-chloro-1-(4-fluorophenyl)-10-{[2-(2-{2-[2-(2-methoxyethoxy)ethoxy]ethoxy}phenyl)pyrimidin-4-yl]methoxy}-20-methyl-16-[(4-methylpiperazin-1-yl)methyl]-7,8,15,16-tetrahydro-18,21-etheno-9,13-(metheno)-6,14,17-trioxa-2-thia-3,5-diazacyclononadeca[1,2,3-cd]indene-7-carboxylic Acid]
- Ki (GST-MCL-1; [3]): 76 nM
- Ki (GST-MCL-1; [4]): 4.1 nM
- IC50 [1]: 0.276 µM
- IC50 [2]: 0.21 µM

Compound: Cc1c(Cl)c2c(Cl)c(C)c1-c1c(-c3ccc(F)cc3)sc3ncnc(c13)O[C@@H](C(=O)O)Cc1cc(ccc1OCc1ccnc(N3CCC4(CCCNC4=O)CC3)n1)OC[C@@H](CN1CCN(C)CC1)O2 [Example 61, (7R,16R)-19,23-dichloro-1-(4-fluorophenyl)-20,22-dimethyl-16-[(4-methylpiperazin-1-yl)methyl]-10-{[2-(1-oxo-2,9-diazaspiro[5.5]undecan-9-yl)pyrimidin-4-yl]methoxy}-7,8,15,16-tetrahydro-18,21-etheno-13,9-(metheno)-6,14,17-trioxa-2-thia-3,5-diazacyclononadeca[1,2,3-cd]indene-7-carboxylic Acid]
- Ki (GST-MCL-1; [3]): 4.2 nM
- Ki (GST-MCL-1; [4]): 0.364 nM
- IC50 [1]: 0.0115 µM
- IC50 [2]: 0.00886 µM
